Earlier results as cited in patent US20220090193A1, “ATTACHING NUCLEOTIDES TO A POLYNUCLEOTIDE WITH A POLYMERASE” (priority 2019, published 2022).

Details: amino acid side chain

NCCCC[C@H](N)C(=O)O [Lysine]
pKa: 10.54
